This is an account of results in patent US5753623A, “Method of treatment for depression” (Connetics Corporation, priority 1995, dated 1998).

The test system of series [1] is female subjects after childbirth. As to the kind of experiment: Clinical trial for treatment of postpartum depression (Example 6). The class given is in vivo, human. The conditions noted are these: osmotic pump 50 μg/kg/day subcutaneous from three days after childbirth, three months, versus placebo. On the procedure: One hundred pregnant female subjects are monitored for relaxin serum concentration during the course of their pregnancy. The subjects are randomized and divided into treatment and control groups. Three days after childbirth, in the treatment group, relaxin is administered by subcutaneous placement of a relaxin-containing osmotic pump delivering 50 μg/kg/day of recombinant human relaxin (H2); in the control group, placebo is administered by subcutaneous placement of a placebo-containing osmotic pump. The subjects are required to maintain a diary documenting their mood (e.g., joy/euphoria/depression/anxiety) over a period of three months following placement of the drug/placebo. The same is documented, along with relaxin serum concentration, by weekly visits to the treating physician.

A further series has as its system patients. As to the kind of experiment: Relaxin treatment regimen with gradually decreased dosage (Example 5). Format: in vivo, human. The conditions noted are these: about 6 μg/kg, then dosage gradually decreased to minimum dose or zero. On the procedure: Relaxin is administered in patient-dependent doses (about 6 μg/kg) sufficient to maintain serum concentrations of at least about 1.0 ng/ml (approximating relaxin concentration during pregnancy).

For series [2], the system named is patient with severe systemic scleroderma. Kind of series: Human antidepressant activity, dose ranging phase (Example 3). The class given is in vivo. The conditions noted are these: 0.5 mg bolus subcutaneous. As to the method: A patient diagnosed as having severe systemic scleroderma with systemic sclerosis, was undergoing compassionate use therapy with relaxin. In a dose ranging phase of the therapy, recombinant human relaxin (H2) in a buffered citrate solution adjusted to Ph 5.0 was administered as a bolus subcutaneous injection of 0.5 mg.

In the next series the test system is Male Lewis mice. Kind of series: Mouse forced swimming wheel model. The conditions noted are these: 50 μg/kg/day subcutaneous, two hours before the test, versus placebo control. The class given is in vivo. On the procedure:
This is a modification of the forced swimming wheel test described by Kasahara, et al., Life Sci., 52(22):1741-1749 (1993).
Male Lewis mice are divided into control and treatment groups. Two hours before the test, the control and treatment groups, respectively, receive subcutaneous injections of placebo or 50 μg/kg/day of recombinant human relaxin (H2) formulated as described in allowed U.S. Ser. No. 08/050,745. The mice are individually placed in the swimming wheel and the number of turns of the wheel is recorded for each. Antidepressant activity is indicated by an increased number of turns in the treatment group.

Series [3] in a line: Serum relaxin concentrations after single subcutaneous administration to a scleroderma patient. Format: in vivo, human. Particulars: 10 μg/kg single subcutaneous injection. As to the method:
FIG. 1 is a graph showing serum relaxin concentration (ng/ml) as measured against time after administration of a single subcutaneous dose of 10 μg/kg to a scleroderma patient.
Relaxin (10 μg/kg) was administered as a single subcutaneous injection to a scleroderma patient. Blood samples were obtained at timed intervals and measured for serum relaxin concentration (ng/ml). Peak serum concentration was attained at about 2 hours post dosing.

The subject of the next series is scleroderma patients. As to the kind of experiment: Monitoring of overall wellbeing in Phase I clinical trials in scleroderma patients. Format: in vivo, human. The text has this:
Recombinant human relaxin (H2) in currently in Phase I human clinical trials in scleroderma patients. Scleroderma is a disease involving an imbalance in tissue reformation giving rise to the overproduction of collagen, and ultimately resulting in swelling and hardening of the skin (and affected organs).
Relaxin is currently the subject of Phase I clinical trials involving scleroderma patients. Scleroderma is a disease involving an imbalance in tissue reformation giving rise to the overproduction of collagen, and ultimately resulting in swelling and hardening of the skin (and affected organs). Part of the clinical testing of relaxin in scleroderma patients included the monitoring of overall wellbeing.

A short description of series [4]: Serum concentrations of relaxin in the ongoing clinical trials. The class given is in vivo, human. As to the method: While human dosage levels for treating depression have yet to be optimized for relaxin, generally, a daily dose is from about […] of body weight per day, preferably about […] μg/kg, and most preferably about 12.0 to 100.0 μg/kg. Generally it is sought to obtain a serum concentration of relaxin approximating or greater than normal circulating levels in pregnancy, i.e., 1.0 ng/ml, such as 0.5 to 50 ng/ml, preferably 1.0 to 20 ng/ml. […] Thus, for administration to a 70 kg person, the dosage range would be about 7.0 μg to 3.5 mg per day, preferably about […] to 2.1 mg per day, and most preferably about […] per day. The amount of relaxin administered will, of course, be dependent on the subject and the severity of the affliction, the manner and schedule of administration and the judgment of the prescribing physician. One treatment regimen can employ a higher initial dosage level (e.g., 100 to 200 μg/kg/day) followed by decreasing dosages to achieve steady relaxin serum concentration of about 1.0 ng/ml. Another treatment regimen, particularly for postpartum depression, entails administration of an amount of relaxin sufficient to attain normal pregnancy levels of relaxin (about 1.0 ng/ml) followed by gradual decreasing dosages until relaxin serum levels are no longer detectable (e.g., less than about 20 pg/ml), optionally discontinuing treatment upon reaching that dosage level.

Series [5] deals with patient with severe systemic scleroderma. Kind of series: Human antidepressant activity, missed doses and readministration (Example 4). Format: in vivo. On the procedure: A patient diagnosed as having severe systemic scleroderma with systemic sclerosis, was undergoing compassionate use therapy with relaxin. They were being treated with 1.5 mg per day of recombinant human relaxin (H2) in a buffered citrate solution adjusted to pH 5.0, divided into six equal doses by subcutaneous injection to achieve a circulating concentration of about 1.0 ng/ml.

Regarding relaxin, the “signs of postpartum depression” value in series [1] is “fewer signs of postpartum depression than the subjects in the control group”. For the same substance, the “depression associated with withdrawal” value with patients is “do not experience depression associated with precipitous withdrawal”. Further, in series [2] (about seven hours post dosing), the patient-reported mood symptoms result is recorded as “significant anxiety/depression-like symptoms”. Besides, in series [2] (about seven hours post dosing, approximated), the relaxin serum concentration result is “below 1 ng/ml”. Also, the patient-reported wellbeing entry in series [2] (about two hours post dosing (approximating peak serum concentration)) is on record as “significant improvement in wellbeing”. For the same substance, the “number of turns of the swimming wheel” value with Male Lewis mice was “increased number of turns as compared to the control group”. Besides, in series [3], the “time to peak serum concentration” value was “about 2 hours”. In addition, in the series on scleroderma patients (discontinuation of therapy), the “effect of discontinuation of therapy on mood” value is “malaise described as best comparable to postpartum depression”. For the same substance, the reversibility of malaise entry in the series with scleroderma patients (resumption of treatment) is “reversible upon resumption of treatment”. For the same substance, in the series with scleroderma patients (treatment of scleroderma with relaxin), the mood during treatment entry is recorded as “mood elevations corresponded to peak dosing periods”. Further, the serum concentration result was “about 1.8 ng/ml” in series [4] (dosage of about 6.0 μg/kg, printed spread ±0.3); ~3.6 ng/mL in series [4] (dosage of about 12.0 μg/kg, printed spread ±0.6); ~11.8 ng/mL in series [4] (dosage of about 50 μg/kg, printed spread ±1.6). In addition, the “mood after several missed doses” value in series [5] (1.5 mg per day in six subcutaneous doses, doses inadvertently missed) is recorded as “feelings similar to those they had previously experienced in the postpartum period”. Also, the “clearing of the "blues" after readministration” value in series [5] (1.5 mg per day in six subcutaneous doses, readministration after missed doses) is on record as “cleared within hours of readministration”. Moreover, in series [5] (following year, patient not withdrawn from treatment), the “episodes of depression during uninterrupted treatment” value was “no similar episodes of depression were experienced”.
